From patent publication US9527847B2, “Treatment of lupus, fibrotic conditions, and inflammatory myopathies and other disorders using PI3 kinase inhibitors” (INFINITY PHARMACEUTICALS, INC., priority 2012, dated 2016)
“And” between values parts separate entries of the source, which are not always exact repeats. Equal values may be shown once.

Tested on: mouse EAE model
Assay: Experimental Autoimmune Encephalomyelitis (EAE) model, semi-therapeutic, 28 day
Type: in vivo
Conditions: for End % body weight +/− SD: Day 27 relative to Day −1; for End score +/− SD: Day 28; for Mean day of EAE onset: after immunization, mice which developed EAE; for Inflammatory foci +/− SD: per spinal cord section; for Demyelination (LFB) +/− SD: score per section
Method: EAE was induced in 60 mice using Hooke Kit™ MOG35-55/CFA Emulsion PTX (Hooke Laboratories, Lawrence Mass.), catalog number EK-0110, lot number 0104, per manufacturer's recommended protocol, except that pertussis toxin was diluted with phosphate buffered saline to achieve 1.4× and 1.3× solution (starting from the 1.5× solution in the kit). This was done to optimize disease severity for this particular study.
Mice were injected subcutaneously, at two sites in the back, with the emulsion component of the kit (containing MOG35-55). One site of injection was in the area of the upper back, approximately 1 cm caudal of the neck line. The second site was in the area of the lower back, approximately 2 cm cranial of the base of the tail. Injection volume was 0.1 mL at each site. Within 2 hours of the injection of emulsion, and then again 24 hours after the injection of emulsion, the pertussis toxin component of the kit was administered intraperitoneally. Volume of each injection was 0.1 mL.
Vehicle for Group 2 (FTY720) was water and 2% ethanol. Vehicle for all other groups was water, 0.5% CMC (low viscosity), and 0.05% Tween80. Mice were dosed at the same time every day, +/−1 hour. The last day of dosing was Day 27 after immunization.
Readouts were EAE scores and changes in body weight. Mice were scored daily from Day 7 to Day 28, and body weights were measured three times/week (Monday, Wednesday and Friday), starting on Day −1.
EAE was scored on scale 0 to 5: • 0 No obvious changes in motor functions of the mouse in comparison to non-immunized mice. When picked up by the tail, the tail has tension and is erect. Hind legs are usually spread apart. When the mouse is walking, there is no gait or head tilting. • 1 Limp tail. When the mouse is picked up by the tail, instead of being erect, the whole tail drapes over finger. • 2 Limp tail and weakness of hind legs. When mouse is picked up by tail, legs are not spread apart, but held closer together. When the mouse is observed walking, it has a clearly apparent wobbly walk. • 3 Limp tail and complete paralysis of hind legs (most common); or limp tail with paralysis of one front and one hind leg; or all of: severe head tilting, walking only along the edges of the cage, pushing against the cage wall, and spinning when picked up by the tail. • 4 Limp tail, complete hind leg and partial front leg paralysis. Mouse is minimally moving around the cage but appears alert and feeding Usually, euthanasia is recommended after the mouse scores level 4 for 2 days. When the mouse is euthanized because of severe paralysis, score of 5 is entered for that mouse for the rest of the experiment. • 5 Complete hind and complete front leg paralysis, no movement around the cage; or mouse is spontaneously rolling in the cage; or mouse is found dead due to paralysis.
At the end of the study 3 luxol fast blue (LFB) stained sections and 3 H&E sections, from lumbar, thoracic, and cervical spinal cord of all mice in Groups 1, 2, 3, and 6 and the 3 naïve mice were prepared and analyzed.
Inflammatory foci were counted in each H&E stained section. Each group of approximately 20 cells was counted as one focus. Foci larger than 20 cells were counted based on an estimate of how many foci of 20 cells were present.
The demyelination score represents an estimate of demyelinated area for each section as follows. For LFB stained slides, the demyelinated area was estimated based on intensity of blue staining of myelin. For H&E stained sections, demyelinated area was estimated by looking for interruption of normal structure—pallor and vacuolation consistent with edema and demyelination, and dilated axons. • 0—no demyelination (less than 5% demyelinated area) • 1—5 to 20% demyelinated area • 2—20 to 40% demyelinated area • 3—40 to 60% demyelinated area • 4—60 to 80% demyelinated area • 5—80 to 100% demyelinated area.
The number of apoptotic cells in each of the three H&E sections was determined.

`C[C@H](Nc1ncnc2[nH]cnc12)c1cc2cccc(Cl)c2c(=O)n1-c1ccccc1` [Compound 292] was tested, and the “Apoptotic cells, average per section+/−SD” value (0.3 mg/kg QD p.o.) was 1.7+/−0.9, the “Demyelination score (H&E sections), average per section+/−SD” value (0.3 mg/kg QD p.o.) was 1.5+/−0.5 and the “MMS +/− SD” value (0.3 mg/kg QD p.o.) was 2.50+/−0.85. The “Median Day of Onset” value (0.3 mg/kg QD p.o.) was 11.5 days, the “End % body weight +/− SD” value (0.3 mg/kg QD p.o.) was 96.1+/−11.8% and the “End score +/− SD” value (0.3 mg/kg QD p.o.) was 1.60+/−1.02. The “Mean day of EAE onset” value (0.3 mg/kg QD p.o.) was 11.3 ± 0.4 days, the “Inflammatory foci +/− SD” value (0.3 mg/kg QD p.o.) was 2.9+/−1.5 and the “Demyelination (LFB) +/− SD” value (0.3 mg/kg QD p.o.) was 1.2+/−0.7. The “MMS +/− SD” value (1 mg/kg QD p.o.) was 2.70+/−0.72, the “Median Day of Onset” value (1 mg/kg QD p.o.) was 11 days and 11.0 days and the “End % body weight +/− SD” value (1 mg/kg QD p.o.) was 99.0+/−7.4%. For the same compound, the “End score +/− SD” value (1 mg/kg QD p.o.) was 1.40+/−0.81, the “Mean day of EAE onset” value (1 mg/kg QD p.o.) was 12.5 ± 1.0 days and the “MMS +/− SD” value (3 mg/kg QD p.o.) was 3.40+/−0.21. For the same compound, the “Median Day of Onset” value (3 mg/kg QD p.o.) was 12 days and 12.0 days, the “End % body weight +/− SD” value (3 mg/kg QD p.o.) was 87.7+/−6.4% and the “End score +/− SD” value (3 mg/kg QD p.o.) was 2.65+/−0.67. The “Mean day of EAE onset” value (3 mg/kg QD p.o.) was 12.1 ± 0.7 days, the “Apoptotic cells, average per section+/−SD” value (10 mg/kg QD p.o.) was 2.2+/−1.0 and the “Demyelination score (H&E sections), average per section+/−SD” value (10 mg/kg QD p.o.) was 1.9+/−0.8. The “MMS +/− SD” value (10 mg/kg QD p.o.) was 2.55+/−0.76, the “Median Day of Onset” value (10 mg/kg QD p.o.) was 14 days and 14.0 days and the “End % body weight +/− SD” value (10 mg/kg QD p.o.) was 95.6+/−8.5%. For the same compound, the “End score +/− SD” value (10 mg/kg QD p.o.) was 1.65+/−0.85, the “Mean day of EAE onset” value (10 mg/kg QD p.o.) was 14.4 ± 1.5 days and the “Inflammatory foci +/− SD” value (10 mg/kg QD p.o.) was 5.2+/−3.2. For the same compound, the “Demyelination (LFB) +/− SD” value (10 mg/kg QD p.o.) was 1.6+/−0.8.
